Results reported in article PMC6792352, “Limited Chemical Structural Diversity Found to Modulate Thyroid Hormone Receptor in the Tox21 Chemical Library” (Environmental Health Perspectives, 2019).
Structures can show the parent of a compound that is named as a salt.

Experiment: in vitro
Settings: rat, gh3-tre-luc cells, AC50 (uM) modified / 1000

| SMILES | CC50 at 24 h [µM] |
| --- | --- |
| Cc1c(I)c(=O)n(-c2ccccc2)n1C [Iodoantipyrine] | > 50 |
| CN(C)C(=O)C(CCN1CCC(O)(c2ccc(Cl)cc2)CC1)(c1ccccc1)c1ccccc1 [Loperamide] | 6.34 |
| CCCCOc1cc(C(=O)OCCN(CC)CC)ccc1N [Benoxinate hydrochloride] | > 20 |
| O=C(O)CCCCC(=O)O [Hexanedioic acid] | > 90 |
| CCCCCOC(=O)c1ccccc1C(=O)OCCCCC [Dipentyl phthalate] | > 90 |
| C[N+]1(CCCCC[N+]2(C)CCCC2)CCCC1 [Pentolinium ditartrate] | > 50 |
| CNC(C)Cc1ccccc1 (racemic) [dl-Methamphetamine hydrochloride] | > 90 |
| ClC(Cl)(Cl)Cl [Carbon tetrachloride] | > 90 |
| N[C@@H]1CCCC[C@H]1N [1,2-Cyclohexanediamine] | > 90 |
| CCCC(C(=O)OCCN(CC)CC)(c1ccccc1)c1ccccc1 [Proadifen hydrochloride] | 24.7 |
| CC1(C)Cc2cccc(N)c2O1 [2,2-Dimethyl-2,3-dihydro-1-benzofuran-7-amine] | > 90 |
| CC(C)(C)C(=O)CCc1ccc(Cl)cc1 [1-(4-Chlorophenyl)-4,4-dimethyl-pentan-3-one] | > 90 |
| CCCC1CCC(=O)CC1 [4-Propylcyclohexanone] | > 90 |
| CCCCCCCCCCCC[N+](C)(C)CCCCCCCCCCCC [Didodecyldimethylammonium bromide] | 12.2 |
| CC(C)(C)NCC(O)c1cc(Cl)c(N)c(C(F)(F)F)c1 (stereo not drawn) [Mabuterol hydrochloride] | 22.3 |
| COc1cc(NS(=O)(=O)c2ccc(N)cc2)nc(OC)n1 [Sulfadimethoxine] | > 20 |
| CCOC(=O)NC(=S)Nc1ccccc1NC(=S)NC(=O)OCC [Thiophanate] | > 90 |
| CNC(C)C(O)c1ccc(O)cc1 (stereo not drawn) [1-(4-Hydroxyphenyl)-2-methyl-2-methylaminoethanol hydrochloride] | > 50 |
| CCN(CC)CCOCCOC(=O)C1(c2ccccc2)CCCC1 [Carbetapentane] | > 50 |
| CN(C)C(C)(C)CO [2-(Dimethylamino)-2-methylpropan-1-ol] | > 90 |
| N#CC(C#N)=C(C#N)C#N [Tetracyanoethylene] | > 100 |

| SMILES | CC50 at 24 h [µM] |
| --- | --- |
| CCCCCCCCCCCCCCCC/C=C/C1CC(=O)OC1=O (stereo not drawn) [Dihydro-3-(octadecenyl)-2,5-furandione] | 36 |
| OC[C@H]1O[C@@H](n2cnc3c2NC=NC[C@H]3O)C[C@@H]1O [Pentostatin] | > 50 |
| O=C(CCS)OCC(COC(=O)CCS)(COC(=O)CCS)COC(=O)CCS [3-[(3-Sulfanylpropanoyl)oxy]-2,2-bis{[(3-sulfanylpropanoyl)oxy]methyl}propyl 3-sulfanylpropanoate] | > 90 |
| Sc1ncccn1 [Pyrimidine-2-thiol] | > 90 |
| COc1ccc2c(c1)c(CC(=O)O)c(C)n2C(=O)c1ccc(Cl)cc1 [Indomethacin] | > 90 |
| NCCCN1CCOCC1 [4-Morpholinepropanamine] | > 90 |
| CN[C@@H]1C[C@@H](c2ccc(Cl)c(Cl)c2)c2ccccc21 [Indatraline hydrochloride] | 10 |
| O=C(c1ccccc1)c1ccc(O)cc1O [2,4-Dihydroxybenzophenone] | > 90 |
| Clc1nc(Cl)nc(Nc2ccccc2Cl)n1 [Anilazine] | > 90 |
| C=CC(=C)C [Isoprene] | > 90 |
| CC(=O)Oc1ccc(C2(c3ccc(OC(C)=O)cc3)Oc3ccccc3NC2=O)cc1 [Bisoxatin acetate] | 4.41 |
| CCCCCCCC/C=C\CCCCCCCC(=O)OC [Methyl (9Z)-octadec-9-enoate] | > 90 |
| C[C@H]1C[C@H]2[C@@H]3CCC4=CC(=O)C=C[C@]4(C)[C@@]3(F)[C@@H](O)C[C@]2(C)[C@@]1(O)C(=O)CCl [Clobetasol] | > 50 |
| Cc1ccc(Cl)c(N)c1Cl [2,6-Dichloro-3-methylaniline] | > 90 |
| CC(=O)CC(C)(C)C1CCCCC1 [4-Cyclohexyl-4-methyl-pentan-2-one] | > 90 |
| NC(=O)c1ccccc1C(N)=O [Phthalamide] | > 90 |
| CCC(=O)O[C@@H](O[P@](=O)(CCCCc1ccccc1)CC(=O)N1C[C@H](C2CCCCC2)C[C@H]1C(=O)O)C(C)C [Fosinopril sodium] | > 50 |
| CC(Cl)C(Cl)Cl (stereo not drawn) [1,1,2-Trichloropropane] | > 90 |
| O=C(O)CCCc1ccc(N(CCCl)CCCl)cc1 [Chlorambucil] | 61 |
| CC(C)CC(C)CC(O)CC(C)C (stereo not drawn) [2,6,8-Trimethyl-4-nonanol] | > 90 |
| CSc1ccc(/C=C2/C(C)=C(CC(=O)O)c3cc(F)ccc32)cc1 [Sulindac sulfide] | > 50 |

| SMILES | CC50 at 24 h [µM] |
| --- | --- |
| CN1CCCN=C1/C=C/c1cccs1 [Pyrantel tartrate] | > 50 |
| C[C@@H](O)[C@H]1C(=O)N2C(C(=O)[O-])=C(SC3Cn4cnc[n+]4C3)[C@H](C)[C@H]12 (stereo partly drawn) [Biapenem] | > 50 |
| c1ccc(-c2ccc(C(c3ccccc3)n3ccnc3)cc2)cc1 (stereo not drawn) [Bifonazole] | 45.2 |
| COc1ccc2c(c1)N(C[C@H](C)CN(C)C)c1ccccc1S2 [Methotrimeprazine maleate] | 6.79 |
| CC1=NN(c2ccc(S(=O)(=O)O)cc2)C(=O)C1N=Nc1ccccc1 (stereo not drawn) [Acid Yellow 11] | 69.4 |
| O=C(O)CONC(=O)c1ccccc1 [Benzadox] | > 90 |
| COc1cc(C(=S)N2CCOCC2)cc(OC)c1OC [Tritiozine] | > 50 |
| Cc1c(O)cc2c(c1C)O[C@](C)(CCC[C@H](C)CCC[C@H](C)CCCC(C)C)CC2 [(+)-gamma-Tocopherol] | > 50 |
| C[C@H](CSC(=O)c1ccccc1)C(=O)N1C[C@@H](Sc2ccccc2)C[C@H]1C(=O)O [Zofenopril] | > 50 |
| C=CC(=O)OCC [Ethyl acrylate] | > 90 |
| CC(C)(C#N)Nc1nc(Cl)nc(NC2CC2)n1 [Procyazine] | > 90 |
| CC(C)(C)C(=O)C(Cl)Cl [Dichloropinacolin] | > 90 |
| Cc1cccc(OCCOc2cccc(C)c2)c1 [1,1'-[Ethane-1,2-diylbis(oxy)]bis(3-methylbenzene)] | > 100 |
| OC[C@@H](O)[C@@H](O[C@@H]1O[C@H](CO)[C@H](O)[C@H](O)[C@H]1O)[C@H](O)[C@@H](O)CO [D-Lactitol monohydrate] | > 90 |
| CCCCCCCCCCCC(=O)N(CC)CC [N,N-Diethyldodecanamide] | > 90 |
| CCC(=O)/C=C/C1C(C)=CCCC1(C)C (stereo not drawn) [Methylionone] | > 90 |
| Cc1ccc(C(=O)O)cc1[N+](=O)[O-] [4-Methyl-3-nitrobenzoic acid] | > 90 |
| O=S(=O)(O)c1cc(Cl)c(Cl)cc1Cl [2,4,5-Trichlorobenzenesulfonic acid] | > 90 |
| CC(C)CCC[C@@H](C)[C@H]1CC(=O)C2=C3CC[C@H]4C[C@@H](O)CC[C@]4(C)[C@H]3CC[C@@]21C [Colestolone] | > 50 |
| CC(=O)O[C@H]1C[C@H](O[C@H]2[C@@H](O)C[C@H](O[C@H]3[C@@H](O)C[C@H](O[C@H]4CC[C@@]5(C)[C@H](CC[C@@H]6[C@@H]5CC[C@]5(C)[C@@H](C7=CC(=O)OC7)[C@@H](O)C[C@]65O)C4)O[C@@H]3C)O[C@@H]2C)O[C@H](C)[C@H]1O[C@@H]1O[C@H](CO)[C@@H](O)[C@H](O)[C@H]1O [Lanatoside B] | > 50 |
| CC1=C(/C=C/C(C)=C/C=C/C(C)=C/C(=O)Oc2c(C)c(C)c3c(c2C)CC[C@@](C)(CCC[C@H](C)CCC[C@H](C)CCCC(C)C)O3)C(C)(C)CCC1 [Tretinoin tocoferil] | > 50 |

Same assay, conditions: rat, gh3-tre-luc cells, AC50 (uM) modified / 1000, Tox21_110001=Tox21_110330; viability, 1 nM T3 present, 24 h

| SMILES | CC50 at 24 h [µM] |
| --- | --- |
| CCC(=O)O[C@H]1CC[C@H]2[C@@H]3CCC4=CC(=O)CC[C@]4(C)[C@H]3CC[C@]12C [Testosterone propionate] | > 20 |

Same assay, conditions: rat, gh3-tre-luc cells, AC50 (uM) modified / 1000, Tox21_110001=Tox21_200042; viability, 1 nM T3 present, 24 h

| SMILES | CC50 at 24 h [µM] |
| --- | --- |
| C=C(Cl)CSC(=S)N(CC)CC [Sulfallate] | > 100 |

Same assay, conditions: rat, gh3-tre-luc cells, AC50 (uM) modified / 1000, Tox21_110001=Tox21_200490; viability, 1 nM T3 present, 24 h

| SMILES | CC50 at 24 h [µM] |
| --- | --- |
| O=C1CCCO1 [4-Butyrolactone] | > 90 |

Same assay, conditions: rat, gh3-tre-luc cells, AC50 (uM) modified / 1000, Tox21_110001=Tox21_201090; viability, 1 nM T3 present, 24 h

| SMILES | CC50 at 24 h [µM] |
| --- | --- |
| CC(=O)C(Cl)Cl [1,1-Dichloropropanone] | > 90 |

Same assay, conditions: rat, gh3-tre-luc cells, AC50 (uM) modified / 1000, Tox21_110001=Tox21_201634; viability, 1 nM T3 present, 24 h

| SMILES | CC50 at 24 h [µM] |
| --- | --- |
| CCOP(=S)(OCC)SCSC(C)(C)C [Terbufos] | > 90 |

Same assay, conditions: rat, gh3-tre-luc cells, AC50 (uM) modified / 1000, Tox21_110001=Tox21_201788; viability, 1 nM T3 present, 24 h

| SMILES | CC50 at 24 h [µM] |
| --- | --- |
| CC(C#N)CCC#N (stereo not drawn) [2-Methylpentanedinitrile] | > 90 |

Same assay, conditions: rat, gh3-tre-luc cells, AC50 (uM) modified / 1000, Tox21_110001=Tox21_202464; viability, 1 nM T3 present, 24 h

| SMILES | CC50 at 24 h [µM] |
| --- | --- |
| CC(=O)/C=C/c1ccc2c(c1)OCO2 [Piperonal acetone] | 57.5 |

Same assay, conditions: rat, gh3-tre-luc cells, AC50 (uM) modified / 1000, Tox21_110001=Tox21_202465; viability, 1 nM T3 present, 24 h

| SMILES | CC50 at 24 h [µM] |
| --- | --- |
| ClCC(Cl)Cl [1,1,2-Trichloroethane] | > 90 |

Same assay, conditions: rat, gh3-tre-luc cells, AC50 (uM) modified / 1000, Tox21_110001=Tox21_300220; viability, 1 nM T3 present, 24 h

| SMILES | CC50 at 24 h [µM] |
| --- | --- |
| N#Cc1ccc(N(CC(N)=O)CC(F)(F)F)cc1C(F)(F)F [GSK232420A] | > 90 |

Same assay, conditions: rat, gh3-tre-luc cells, AC50 (uM) modified / 1000, Tox21_110001=Tox21_300794; viability, 1 nM T3 present, 24 h

| SMILES | CC50 at 24 h [µM] |
| --- | --- |
| CCOP(=S)(OCC)SC(CCl)N1C(=O)c2ccccc2C1=O (stereo not drawn) [Dialifor] | > 90 |

Same assay, conditions: rat, gh3-tre-luc cells, AC50 (uM) modified / 1000, Tox21_110001=Tox21_301746; viability, 1 nM T3 present, 24 h

| SMILES | CC50 at 24 h [µM] |
| --- | --- |
| CNC=Nc1ccc(C)cc1C [N'-(2,4-Dimethylphenyl)-N-methylformamidine] | > 90 |

Same assay, conditions: rat, gh3-tre-luc cells, AC50 (uM) modified / 1000, Tox21_110001=Tox21_302270; viability, 1 nM T3 present, 24 h

| SMILES | CC50 at 24 h [µM] |
| --- | --- |
| CCC(=O)O[C@H]1CC[C@H]2[C@@H]3CCC4=CC(=O)CC[C@]4(C)[C@H]3CC[C@]12C [Testosterone propionate] | 55 |
